In general, melting point refers to the temperature, or range, at which the solid turns liquid.

On to `Cc1cc(C)cc(COC(=O)C(Cc2c[nH]c3ccccc23)NC(=O)C2CCCCC2)c1` (stereo not drawn), for which the melting point was in the range of 143 to 144 °C. As for `CC(=O)C1CNCc2c1[nH]c1cnc3ccccc3c21` (stereo not drawn), the figure is 218 to 221 °C. For `CCn1cc(C2(c3ccc(F)c(-c4cccnc4F)c3)N=C(N)N(C)C2=O)cc1C(=O)OC` (stereo not drawn) the value was 114 to 117 °C. In turn, `CCOC(=O)C1CCN(CC2(C)Cc3c(C)c(N)c(C)c(C)c3O2)CC1` (stereo not drawn) returned a melting point of 74 to 76 °C.

As for `Cc1nc(N2CCN(Cc3ncoc3-c3ccccc3)C2=O)sc1C(=O)NCc1cccnc1`, the melting point lay within 78 to 81 °C. As for `Nc1nnc(C(CCc2ccccc2)NC(=O)c2ccc3[nH]c(-c4ccncc4)nc3c2)o1` (stereo not drawn), the figure is 160 °C; as for `CC(O)(C=Cc1ccc(S(=O)(=O)c2ccccc2)cc1)C(F)(F)F` (stereo not drawn), 94 to 97 °C; as for `CCOC(=O)C=Cc1cnc(Nc2ccccc2)nc1N`, 190 to 192 °C. Consider `Cc1cc(C(F)(F)C(F)(F)F)ccc1NC(=O)c1ccc(Cl)c(Cl)c1C(=O)NC(C)C`, for which the melting point fell in the range of 208 to 209 °C. `CC(C)(C)C1CCc2nnc(Cl)cc2C1` (stereo not drawn) came in with a melting point of 96 to 97 °C. For `N#Cc1cnn(-c2ccc(CBr)cc2)n1` the value was 147 to 148 °C; for `Cc1[nH]cnc1CC1CCc2c(C)c3cc(Cl)ccc3n2C1=O` (stereo not drawn), 244 to 246 °C; for `COc1ccc(C2=NN(Cc3ccc(NC(=O)c4cccnc4)cc3)C(=O)CC2)cc1OC`, 184 °C. For `CCC1CN(c2nc(C)nc(NC)n2)c2ccccc21` (stereo not drawn) the value was 168 to 170 °C; for `COC(=O)Oc1ccc(CNC=C2C(=O)NC(=O)c3ccc(Br)cc32)cc1OC(=O)OC`, 239 to 240 °C; for `COc1cc2c3c(cccc3c1)C(=O)c1ccccc1-2`, 168 to 169 °C.

Consider `COC(=O)CCCc1cc2cc(Cl)ccc2n1S(=O)(=O)c1cc(C)cc(C)c1`, for which the melting point lay in the range of 140 to 143 °C. For `COc1ccc(-c2nc(COc3ccc(CCCn4ccnc4)cc3)co2)s1` the value was 96 to 97 °C; for `O=C(Nc1n[nH]c2cc(Cl)ccc12)c1cccs1`, 215 °C. Compound `Cn1cc(OC(=O)c2ccccc2)c(=O)c2cccc(F)c21` gave a melting point of 179 to 181 °C. For `CNCC(=O)N1Cc2cccc3c2N(CC3)c2ccccc21` the value was 128 to 130 °C; for `CNC(=S)n1nc(Oc2ncc(C(F)(F)F)cc2Cl)cc1C`, 63 to 65 °C; for `O=C(Nc1cccc(CN2C(=O)[C@H]3CCC[C@H]3N(C(=O)CN3C(=O)c4ccccc4C3=O)c3ccccc32)c1)c1ccccc1` (relative stereo), 244 to 246 °C.

As for `COc1ccc2c(-c3sccc3C)noc2c1Cl`, the melting point was in the range of 154 to 156 °C. Compound `C#CC[C@@H](NCCCNC(=O)OCc1ccccc1)c1nc2cc(Cl)ccc2c(=O)n1Nc1ccccc1` showed a melting point of 63 to 65 °C. `Cc1cn(C)cc(-c2cccc(C(F)(F)F)c2)c1=O` returned a melting point of 130 to 131 °C.

As to `COc1ccc(C(=O)Nc2cccc(Cl)c2)cc1N`, the melting point was in the range of 144 to 146 °C. On to `O=C(Nc1ccc(F)c(C(F)(F)F)c1)C1C(=O)C2CCC(C2)C1=O` (stereo not drawn), for which the melting point fell in the range of 97 to 100 °C. As for `COc1cccc2c1OC(CN1CC=C(c3c[nH]c4cc(F)ccc34)CC1)CO2` (stereo not drawn), the figure is 184 to 185 °C; as for `Fc1c(OCc2ccccc2)ccc(-c2ncc(Br)cn2)c1F`, 138 °C.

As to `N#Cc1ccccc1-c1ccc(CC(NC(=O)Nc2ccccc2S(=O)(=O)N2CCCCC2)C(=O)O)cc1` (stereo not drawn), the melting point stood at 140 °C. As for `CSc1ccc(-n2cnc3ccc(-c4nnc(CCc5cccc(C#N)c5)o4)cc32)cc1`, the figure is 185 to 186 °C. The compound `NS(=O)(=O)c1ccccc1OC(F)(F)C(F)(F)F` displayed a melting point of 145 to 146 °C.

As for `CCOC(=O)C=C(C)C=CC=C(C)C=Cc1c(C)cc(OC)c(C)c1Cl`, the melting point was 106 to 107 °C. For `Cc1cc(C)cc(-c2cc(O)c(Sc3ccccc3)c(=O)o2)c1` the value was 210 to 211 °C; for `N#CC(c1cccnc1)C1CCN(C(=O)CC(NC(=O)c2cccc(OCc3ccc4ccccc4n3)c2)c2ccccc2)CC1` (stereo not drawn), 91 to 97 °C; for `COc1ccccc1NC(=O)CN1CCN(c2ncccc2C#N)CC1`, 174 to 175 °C.

For the compound `Nc1c(-c2ccc(-c3ccccc3)cc2)nc2c(Cl)cc(Cl)cc2c1C(=O)O`, the melting point was 244 to 245 °C. As for `CCCCCCCCCCCCCCC(F)(F)P(=O)(O)O`, the figure is 66 to 69 °C.

On to `CNc1c(F)c(O)c2c(=O)c(C(=O)O)cn(-c3cc(N)c(F)cc3F)c2c1C`, for which the melting point is > 280 °C. As for `CC(C)(C)OC(=O)COc1ccc(C(=O)O)cc1`, the figure is 119 to 121 °C. As for `C[C@H]1CCCN(C(=O)Cc2ccc(Cl)c(Cl)c2)[C@H]1C=O` (relative stereo), the figure is 97 to 98 °C. As for `COC(=O)NCC1CC(c2ccccc2)=NO1` (stereo not drawn), the figure is 102 to 103 °C. Compound `O=C(c1ccccc1)c1cc([N+](=O)[O-])ccc1-n1nc(CO)cc1CO` showed a melting point of 145 to 147 °C. As for `C#CCOc1cc(NN=C2CCCCN2C(=O)OC)c(Cl)cc1Cl`, the figure is 137 to 138 °C.

`CCCCc1ccc(C(=O)NCc2c[nH]c(=S)n2[C@H]2CCc3c(F)cc(F)cc3C2)nc1` gave a melting point of 99 to 104 °C. As for `COc1cccc(C(=O)N2CCc3cc(O)c(OC)cc3C2)c1`, the figure is 141 to 142 °C; as for `Nc1ccc(C=C2SC(=O)NC2=O)cc1`, 265 to 270 °C. As for `O=C(O)C1C(=O)c2cc(F)ccc2N=C1c1ccccc1` (stereo not drawn), the figure is 297 °C; as for `CC(=O)NC[C@H]1CN(c2ccc(N3CCC(n4cc(C#N)nn4)CC3)c(F)c2)C(=O)O1`, 148 to 150 °C; as for `C[C@]1(COc2ccc(N3CCC(N4CCN(c5ccc(Cl)cc5)CC4)CC3)cc2)Cn2cc([N+](=O)[O-])nc2O1`, 247 to 249 °C.

Consider `Fc1ccc2c(c1)OCc1c(-c3noc(C4CC4)n3)ncn1-2`, for which the melting point lay in the range of 182 to 184 °C. Regarding `CCOC=NN=C(c1ccc(Cl)cc1)c1ccc(OS(C)(=O)=O)cc1`, the melting point is 104 to 107 °C.

Turning to `FC(F)(F)c1ccc(-c2cc(C(F)(F)F)n3ncc(C#Cc4cncnc4)c3n2)cc1`, the melting point came out at 175 °C.

The compound `COc1ccc(/C(=C\C=C\C(=O)O)c2ccccc2OC)cc1` had a melting point of 159 to 161 °C. Consider `COC(=O)c1ccc(OC)cc1-c1ccc(C(F)(F)F)cc1`, for which the melting point fell in the range of 93 to 94 °C. As for `C=CCc1cc(C(=O)O)ccc1O`, the figure is 119 to 123 °C.

Turning to `COC(=O)CCC(=NOCc1ccc(OCCc2nc(-c3ccccc3)oc2C)cc1)c1ccccc1`, the melting point lay within 73 to 74 °C. For `COC(=O)c1ccc(O)cc1[N+](=O)[O-]` the value was 161 to 166 °C; for `NC(=O)C(Oc1ccc(Cl)cc1)(C(F)(F)F)C(F)(F)F`, 77 to 79 °C. Compound `CCCCNC(=N)OC(=N)N(CCCC)c1cccc(-c2ccnc3c(C(=O)c4cccs4)cnn23)c1` returned a melting point of 180 to 181 °C.

In turn, `O=[N+]([O-])c1oc2c(NS(=O)(=O)C(F)(F)F)cccc2c1-c1ccccc1` registered a melting point of 168 to 170 °C. In turn, `COc1ccccc1CN=C(Cc1ccccc1)N1CC2C(=O)CCC(c3ccccc3)(c3ccccc3)C2C1` (stereo not drawn) showed a melting point of 146 °C. As for `O=C(O)CCC(=O)c1ccc(O)c(Cl)c1`, the figure is 155 to 160 °C; as for `Cc1cccc(-c2nnc(-c3ccccc3Cc3ccccc3)nn2)c1`, 90 to 91 °C. As for `CC(C)(CC(F)(F)F)NC(=N)NC#N`, the figure is 153 °C; as for `CCCCCCCCC(=O)Oc1cc2c(s1)CCN(C(C(=O)C1CC1)c1ccccc1F)C2` (stereo not drawn), 45 to 48 °C. `CCCCCCCCCCCCCC(=O)Nc1ccc(Cl)c(NC(=CC(=O)OCC)NNc2c(Cl)cc(Cl)cc2Cl)c1`: the melting point is 91 to 93 °C.

Consider `COc1cc(CSCCC(=O)SCc2cc(OC)c(OC)c(OC)c2)cc(OC)c1OC`, for which the melting point is 88 to 89 °C. For `O=C(O)C1c2cc(Br)ccc2OCc2ncccc21` (stereo not drawn) the value was 126 to 127 °C; for `O=C(c1ccc(F)cc1)C1CCN(CCn2c(=O)[nH]c3cc(F)ccc3c2=O)CC1`, 248 °C. As for `C[Si](C)(C)c1ccc(Cl)s1`, the figure is 68 to 69 °C. In turn, `CCCCC[C@@H](CC(=O)NO)C(=O)N[C@H](CC(C)C)C(=O)N[C@@H](C)C(N)=O` had a melting point of 134 to 136 °C. For `Cc1cc(-c2ccc(OC(F)(F)F)cc2)cc(-c2cccc(-c3cccc(S(=O)(=O)NC(C)(C)C)c3)n2)n1` the value was 148 °C; for `COc1cc2c(cc1Br)-c1c(-c3cccs3)c3c(n1CC2)C(=O)N(C)C(C)(C)CC3`, 173 to 175 °C. As for `NC(=O)c1ccccc1N1CCN(CC[C@H]2OCCc3ccccc32)CC1`, the figure is 157 to 158 °C; as for `CC(C)(C)OC(=O)N1CCN(S(=O)(=O)c2ccc(N)c(Cl)c2)CC1`, 243 to 244 °C; as for `CC1=CC(OC(=O)c2ccc(N)cc2)C(O)C(C)(C)CC1=O` (stereo not drawn), 152 to 153 °C. Consider `OCC1OC(n2cnc3c(NC4C=CCC4O)ncnc32)C(O)C1O` (stereo not drawn), for which the melting point was in the range of 212 to 214 °C. As for `Cc1cc(Br)cnc1CCCNc1ncc(Cc2cccnc2)cc1[N+](=O)[O-]`, the figure is 105 to 106 °C; as for `COc1ccc(CS(=O)C(C)(C)C)cc1` (stereo not drawn), 124 to 126 °C. For `CC(C)(C)OC(=O)Nc1ccc2ccccc2c1Br` the value was 90 to 91 °C; for `CCSc1nc(=O)[nH]cc1F`, 168 °C.

`CC(=O)NCCC1CCc2ccc3ocnc3c21` (stereo not drawn) came in with a melting point of 89 to 92 °C.

In turn, `CCc1nn2ccccc2c1N(CCF)C(=O)COC` displayed a melting point of 66.9 to 70.6 °C. For the compound `O=C1[C@@H](O)CCN1CC#CCn1ccnc1`, the melting point lay within 127 to 128 °C. For `c1cc(-c2ccc(N3CCNCC3)nc2)nc(Nc2ccc3cc[nH]c3c2)n1` the value was 201 to 203 °C; for `O=C1CCC2=C(CCc3c(F)cccc32)N1`, 233 to 234 °C.

The values are drawn from a melting point compilation (Tetko et al.; mined from patent text by program, amines drawn as free bases though some values may be those of a salt).
